For 11 compounds, IC50 results are on record in PubChem BioAssay AID484 (The Scripps Research Institute Molecular Screening Center, 2006).

Molecules are shown by their SMILES. Calls of active or inactive are those of the source. No rule for the calls is given here.

Sequence of Sphingosine 1-phosphate receptor 3 (Homo sapiens) (Q99500 whole entry, looked up): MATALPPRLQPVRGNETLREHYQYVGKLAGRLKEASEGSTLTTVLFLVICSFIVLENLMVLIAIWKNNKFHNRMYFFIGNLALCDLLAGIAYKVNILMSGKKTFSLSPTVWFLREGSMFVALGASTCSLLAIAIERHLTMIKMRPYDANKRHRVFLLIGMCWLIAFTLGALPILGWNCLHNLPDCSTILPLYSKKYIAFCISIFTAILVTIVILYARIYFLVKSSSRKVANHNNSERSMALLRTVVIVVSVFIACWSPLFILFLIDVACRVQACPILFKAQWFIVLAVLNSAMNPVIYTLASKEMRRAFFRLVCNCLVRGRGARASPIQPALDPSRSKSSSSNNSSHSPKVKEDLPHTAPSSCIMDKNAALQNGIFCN

This assay has as its target Sphingosine 1-phosphate receptor 3 (Homo sapiens) (UniProt Q99500). The assay can be described thus: blockade of S1P-driven S1P3 signaling – cell-based, dose response (AID 484). The note with it: S1P3-expressing cells, antagonist inhibition of S1P response.
Consider `CN1CCN(C(=O)OC2c3nccnc3C(=O)N2c2ccc(Cl)cn2)CC1` (stereo unspecified), for which the IC50 was > 49.8 µM (inactive).
As to `CC1(C)CC(=O)CC(=Nc2ccc(C(=O)O)cc2)C1`, the IC50 was > 49.8 µM (inactive).
The figure for `O/C(=C\Sc1nnc(Cc2ccccc2)o1)c1ccc(Br)cc1` is > 49.8 µM (inactive); for `N#CC1=C(N)Oc2cc3c(cc2C1c1ccc(Cl)cc1)OCO3` (stereo unspecified) it is “inactive”; for `CC(=O)C1=C(C)Nc2ncnn2C1c1ccc(Cl)cc1` (stereo unspecified) it is > 49.8 µM (inactive).
In the case of `COc1ccc(CC2C(=O)NC(=O)N(c3ccccc3)C2=O)c(OC)c1` (stereo unspecified) it was > 49.8 µM (inactive); in that of `COC(=O)C1=C(N)Oc2cc(N(C)C)ccc2C1c1ccccc1OC` (stereo unspecified), > 16.6 µM (inactive).
As for `COc1ccc(OC)c(C2C(C(C)=O)=C(O)C(=O)N2CCC(=O)O)c1` (stereo unspecified), the IC50 is > 49.8 µM (inactive).
The figure for `COC(=O)C1=C(N)Oc2cc(C)n(C)c(=O)c2C1c1ccc(Cl)cc1` (stereo unspecified) is > 49.8 µM (inactive).
For `COc1cccc(N2C(=O)C(CC(=O)Nc3ccc(F)cc3)N(C3CCCCC3)C2=O)c1` (stereo unspecified), the IC50 is > 49.8 µM (inactive).
Turning to `Cc1ccc(S(=O)(=O)N2CC(=NO)C2)cc1`, the IC50 was > 49.8 µM (inactive).

As a reminder, the IC50 is the point on the concentration scale where inhibition reaches its midpoint.
